The assay deals with P388 leukemia ip, CD2F1 mice, survival T/C. Kind of assay: NCI In Vivo Anticancer Drug Screen. Data for tumor model P388 Leukemia (intraperitoneal) in CD2F1 (CDF1) mice. The conditions noted are these: endpoint: median survival time, higher = longer survival. In a few lines: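 Mice carrying the transplanted tumor received test compound or vehicle. Survival was recorded in each group, and the value is the treated-group measurement divided by that of the vehicle-treated control group.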

Where [1] appears, read: dose: 25.0 mg/kg/injection, schedule: Q01DX009 (ip), vehicle: saline with Tween-80.
Setting [2] is: dose: 50.0 mg/kg/injection, schedule: Q01DX009 (ip), vehicle: saline with Tween-80.
The mark [3] stands for this setting: dose: 100.0 mg/kg/injection, schedule: Q01DX009 (ip), vehicle: saline with Tween-80.
Where [4] appears, read: dose: 200.0 mg/kg/injection, schedule: Q01DX009 (ip), vehicle: saline with Tween-80.
[5] abbreviates: dose: 12.5 mg/kg/injection, schedule: Q01DX009 (ip), vehicle: saline with Tween-80.
The mark [6] stands for this setting: dose: 60.0 mg/kg/injection, schedule: Q01DX005 (ip), vehicle: saline with Tween-80.
Where [7] appears, read: dose: 120.0 mg/kg/injection, schedule: Q01DX005 (ip), vehicle: saline with Tween-80.
Where [8] appears, read: dose: 240.0 mg/kg/injection, schedule: Q01DX005 (ip), vehicle: saline with Tween-80.

Each structure is given as a SMILES string. Several values for one entry are separate records, joined by “and”; a condition that tells them apart may be missing. Identical values can stand only once. Toxic doses and inconclusive results are not listed.

On to `CC1(C)COC(=O)/C1=C\C#N`, for which the T/C (dose: 50.0 mg/kg/injection, schedule: Q04DX003 (ip), vehicle: Klucel (hydroxypropylcellulose) (HPC)) is 94 % of control and 98 % of control; the T/C (dose: 100.0 mg/kg/injection, schedule: Q04DX003 (ip), vehicle: Klucel (hydroxypropylcellulose) (HPC)) was 105 % of control; the T/C (dose: 100.0 mg/kg/injection, schedule: Q04DX003 (ip), vehicle: saline) is 101 % of control; the T/C (dose: 200.0 mg/kg/injection, schedule: Q04DX003 (ip), vehicle: Klucel (hydroxypropylcellulose) (HPC)) was 100 % of control and 97 % of control; the T/C (dose: 200.0 mg/kg/injection, schedule: Q04DX003 (ip), vehicle: saline) is 111 % of control; the T/C (dose: 400.0 mg/kg/injection, schedule: Q04DX003 (ip), vehicle: Klucel (hydroxypropylcellulose) (HPC)) is 105 % of control. In addition, the T/C (dose: 400.0 mg/kg/injection, schedule: Q04DX003 (ip), vehicle: saline) is 120 % of control.
For `Cc1ccc(C)c(NC(=O)Nc2ccc(CCO)cc2)c1`, the T/C (dose: 50.0 mg/kg/injection, schedule: Q01DX009 (ip), vehicle: Klucel (hydroxypropylcellulose) (HPC)) is 102 % of control; the T/C (dose: 100.0 mg/kg/injection, schedule: Q01DX009 (ip), vehicle: Klucel (hydroxypropylcellulose) (HPC)) was 102 % of control; the T/C (dose: 200.0 mg/kg/injection, schedule: Q01DX009 (ip), vehicle: Klucel (hydroxypropylcellulose) (HPC)) was 99 % of control.
With `CCOc1ccc(/C=C(\C(=O)c2ccccc2)S(=O)(=O)c2ccc(OC)cc2)cc1OC`, the T/C was 92 % of control (dose: 50.0 mg/kg/injection, schedule: Q01DX005 (ip), vehicle: saline with Tween-80) and 92 % of control (dose: 100.0 mg/kg/injection, schedule: Q01DX005 (ip), vehicle: saline with Tween-80).
As for `N=c1c(C(=O)OCc2ccccc2)ncc(CCl)n1O`, the T/C is 114 % of control under setting [1], 124 % of control under setting [2], 123 % of control under setting [3] and 116 % of control under setting [4].
Turning to `CCC(C)C1NC(=O)C(NC(=O)c2c3nc4c(C(=O)NC5C(=O)NC(C(C)CC)C(=O)N6CCCC6C(=O)N(C)CC(=O)N(C)C(C(C)C)C(=O)OC5C)cc(N)c(C)c4oc-3c(C)c(=O)c2N)C(C)OC(=O)C(C(C)C)N(C)C(=O)CN(C)C(=O)C2CCCN2C1=O` (stereo not given), the T/C is, setting by setting: (dose: 0.1 mg/kg/injection, schedule: Q01DX009 (ip), vehicle: Klucel (hydroxypropylcellulose) (HPC)) 247 % of control; (dose: 0.2 mg/kg/injection, schedule: Q01DX009 (ip), vehicle: Klucel (hydroxypropylcellulose) (HPC)) 230 % of control; (dose: 100.0 micrograms/kg/injection, schedule: Q01DX009 (ip), vehicle: water) 152 % of control; (dose: 150.0 micrograms/kg/injection, schedule: Q01DX009 (ip), vehicle: water) 166 % of control; (dose: 225.0 micrograms/kg/injection, schedule: Q01DX009 (ip), vehicle: water) 177 % of control.
Turning to `Cc1nc2cc(C(=O)NC=O)c3n[nH]nc3c2n1C`, the T/C is 98 % of control (dose: 4.0 mg/kg/injection, schedule: Q01DX005 (ip), vehicle: DMSO); 103 % of control (dose: 8.0 mg/kg/injection, schedule: Q01DX005 (ip), vehicle: DMSO); 94 % of control (dose: 16.0 mg/kg/injection, schedule: Q01DX005 (ip), vehicle: DMSO); 93 % of control (dose: 32.0 mg/kg/injection, schedule: Q01DX005 (ip), vehicle: DMSO).
Regarding `C=Cn1c([N+](=O)[O-])cnc1/C=C/c1ccc(C(=O)NC(C)CC)cc1` (stereo not given), the T/C by setting is: (dose: 100.0 mg/kg/injection, schedule: Q04DX002 (ip), vehicle: gum acacia) 93 % of control; (dose: 200.0 mg/kg/injection, schedule: Q04DX002 (ip), vehicle: gum acacia) 91 % of control; (dose: 400.0 mg/kg/injection, schedule: Q04DX002 (ip), vehicle: gum acacia) 96 % of control.
Consider `COc1ccc2c(c1)CCC1C2CCC2(C)C1CCC2(C)N(C)C` (stereo not given), for which the T/C is, setting by setting: (dose: 6.25 mg/kg/injection, schedule: Q01DX005 (ip), vehicle: Klucel (hydroxypropylcellulose) (HPC)) 102 % of control; (dose: 12.5 mg/kg/injection, schedule: Q01DX005 (ip), vehicle: Klucel (hydroxypropylcellulose) (HPC)) 102 % of control.
With `O=C(/C=C/c1ccc2c(c1)OCO2)c1ccc(Cl)cc1`, the T/C under setting [2] is 86 % of control, the T/C under setting [3] is 100 % of control and the T/C under setting [4] was 95 % of control.
Consider `Cc1ccc(S(=O)(=O)N/N=C/c2c(Cl)n(C(=O)c3ccccc3C)c3ccccc23)cc1`, for which the T/C by setting is: (dose: 100.0 mg/kg/injection, schedule: Q01DX001 (ip), vehicle: Klucel (hydroxypropylcellulose) (HPC)) 97 % of control; (dose: 200.0 mg/kg/injection, schedule: Q01DX001 (ip), vehicle: Klucel (hydroxypropylcellulose) (HPC)) 91 % of control; (dose: 400.0 mg/kg/injection, schedule: Q01DX001 (ip), vehicle: Klucel (hydroxypropylcellulose) (HPC)) 89 % of control.
For `O=C(O)c1ccc(=O)oc1`, the T/C is, setting by setting: under setting [5], 98 % of control; under setting [1], 94 % of control; under setting [2], 116 % of control; under setting [3], 116 % of control.
Consider `CCCCCCC(O)CCCCCCCCCCC(=O)O` (stereo not given), for which the T/C by setting is: (dose: 100.0 mg/kg/injection, schedule: Q04DX003 (ip), vehicle: saline with Tween-80) 109 % of control; (dose: 200.0 mg/kg/injection, schedule: Q04DX003 (ip), vehicle: saline with Tween-80) 100 % of control; (dose: 400.0 mg/kg/injection, schedule: Q04DX003 (ip), vehicle: saline with Tween-80) 104 % of control.
For `c1ccc2c(c1)CC1OCN3CN(COC4Cc5ccccc5CC43)C1C2` (stereo not given), the T/C is 114 % of control (dose: 50.0 mg/kg/injection, schedule: Q01DX005 (ip), vehicle: saline); 111 % of control (dose: 100.0 mg/kg/injection, schedule: Q01DX005 (ip), vehicle: saline); 112 % of control (dose: 200.0 mg/kg/injection, schedule: Q01DX005 (ip), vehicle: saline).
`O=C1CC2(CCCc3sccc32)C(=O)N1` (stereo not given): the T/C runs as follows: under setting [6], 101 % of control; under setting [7], 94 % of control; under setting [8], 92 % of control.
With `COC12c3c(C)cc(O)c4c(=O)occ(c34)C(=O)C1C13COC(=O)c4c(O)cc(C)c(c41)C(=O)C2C3OC(C)=O` (stereo not given), the T/C is 107 % of control and 119 % of control under setting [1]; 111 % of control and 122 % of control under setting [2]; 103 % of control and 120 % of control and 123 % of control under setting [3].
In the case of `Cc1sc(C)c(CCl)c1CCl`, the T/C by setting is: under setting [5], 113 % of control; under setting [1], 118 % of control; (dose: 37.5 mg/kg/injection, schedule: Q01DX009 (ip), vehicle: saline with Tween-80) 122 % of control; under setting [2], 118 % of control.
Turning to `CCNCC(=O)Nc1ccc2c(c1)C(=O)c1ccc(NC(=O)CNCC)cc1C2=O`, the T/C was 100 % of control (dose: 25.0 mg/kg/injection, schedule: Q04DX002 (ip), vehicle: saline with Tween-80); 110 % of control (dose: 50.0 mg/kg/injection, schedule: Q04DX002 (ip), vehicle: saline with Tween-80); 102 % of control (dose: 100.0 mg/kg/injection, schedule: Q04DX002 (ip), vehicle: saline with Tween-80); 108 % of control and 93 % of control (dose: 200.0 mg/kg/injection, schedule: Q04DX002 (ip), vehicle: saline with Tween-80).
As for `C=CCn1nc([O-])[n+]2ccccc12`, the T/C (dose: 100.0 mg/kg/injection, schedule: Q01DX001 (ip), vehicle: saline) is 95 % of control; the T/C (dose: 200.0 mg/kg/injection, schedule: Q01DX001 (ip), vehicle: saline) is 95 % of control; the T/C (dose: 400.0 mg/kg/injection, schedule: Q01DX001 (ip), vehicle: saline) was 104 % of control.
For the molecule `CCOC(=O)[C@H]1C(CC)=NOC1C` (stereo not given in full), the T/C was 102 % of control under setting [6], 102 % of control under setting [7] and 101 % of control under setting [8].
In the case of `C/C=C(\C)C(=O)O[C@@H]1c2cc3c(cc2-c2c(cc(OC)c(OC)c2OC)[C@@H]2C(=O)OC[C@@H]12)OCO3`, the T/C was 92 % of control (dose: 1.25 mg/kg/injection, schedule: Q01DX009 (ip), vehicle: Klucel (hydroxypropylcellulose) (HPC)); 111 % of control (dose: 2.5 mg/kg/injection, schedule: Q01DX009 (ip), vehicle: Klucel (hydroxypropylcellulose) (HPC)); 113 % of control (dose: 5.0 mg/kg/injection, schedule: Q01DX009 (ip), vehicle: Klucel (hydroxypropylcellulose) (HPC)); 103 % of control (dose: 10.0 mg/kg/injection, schedule: Q01DX009 (ip), vehicle: Klucel (hydroxypropylcellulose) (HPC)).

The record behind these values is PubChem BioAssay AID330 (DTP/NCI, 2004).
